Measurements from patent US20240124434A1, “ATF6 INHIBITORS AND USES THEREOF” (Altos Labs, Inc., priority 2018, published 2024).
≈ marks a conversion by molar mass, not a printed value.

Legend:
[1] = tested on: ATF6; test: ERSE ATF6-luciferase reporter assay (thapsigargin-induced ER stress); assay type: cell-based, human; details: Homo sapiens, U2OS, thapsigargin-induced ER stress, U2-OS ATF6 luc reporter cells; for inhibition at 1 µM: 8 h, read-out: Inh. ATF6-Luc @ 1 μM [%], 1 μM test compound, 8 hr; for IC50: read-out: IC50 ATF6-Luc reporter [μM], dose-response 30 μM to 1 nM
[2] = In vitro microsomal stability, human liver microsomes; assay type: in vitro ADME; details: for half-life at […], 1 µM: human, read-out: T1/2 @ hLM; for half-life at […], 1 µM / microsomal CLint at […], 1 µM: human liver microsomes, pH 7.4; for microsomal CLint at […], 1 µM: intrinsic clearance, read-out: Clint @ hLM; for Rem. @ hLM (%): remaining fraction after 30 min, 1 μM compound, 0.5 mg/mL human liver microsomes, 1 mM NADPH
Experimental: (§1) Compounds were incubated at a final concentration of 1 μM with 0.5 mg/mL human liver microsomes (hLM) (#HMMCPL; Thermo), mouse liver microsomes (mLM) (#MSMCPL; Thermo) or rat liver microsomes (rLM) (#RTMCPL; Thermo) and 1 mM reduced dihydronicotinamide-adenine dinucleotide phosphate (NADPH) (#N1630; Sigma) in 100 mM phosphate buffer (pH 7.4) at 37° C. The reactions were terminated at 0, 5, 15 and 30 min by the addition of cold acetonitrile containing 50 ng/mL propranolol as an internal standard. […] Verapamil hydrochloride (#V4369 Aldrich) was used as a positive control in all studies.

[3] = In vitro microsomal stability, mouse liver microsomes; assay type: in vitro ADME; details: for half-life at […], 1 µM / half-life at 1 μM: mouse, read-out: T1/2 @ mLM; for half-life at […], 1 µM / microsomal CLint at […], 1 µM / half-life at 1 μM: mouse liver microsomes, pH 7.4; for microsomal CLint at […], 1 µM: intrinsic clearance, read-out: Clint @ mLM; for Rem. @ mLM (%): remaining fraction after 30 min, 1 μM compound, 0.5 mg/mL mouse liver microsomes, 1 mM NADPH
Experimental: as §1

[4] = In vitro microsomal stability, rat liver microsomes; assay type: in vitro ADME; details: for microsomal CLint at […], 1 µM / half-life at […], 1 µM / half-life at 1 μM: pH 7.4, rat liver microsomes; for microsomal CLint at […], 1 µM: intrinsic clearance, read-out: Clint @ rLM; for half-life at […], 1 µM / half-life at 1 μM: rat, read-out: T1/2 @ rLM; for Rem. @ rLM (%): remaining fraction after 30 min, 1 μM compound, 0.5 mg/mL rat liver microsomes, 1 mM NADPH
Experimental: as §1

[5] = Kinetic solubility (nephelometry); assay type: physicochemical; details: aqueous buffer, kinetic from dmso stock; PBS pH 7.4, 1% DMSO, 1 hour at 37° C., light scattering at 625 nm
Experimental: Concentration (μM) was then calculated by segmental regression. Amiodarone (#A8423 Aldrich) was used as positive control.

[6] = target: CYP2B6 (Homo sapiens (Human), UniProt P20813); test: CYP inhibition in human liver microsomes; details: read-out: CYP-2B6; human liver microsomes; probe substrate bupropion
CYP2B6, sequence (P20813 whole entry, canonical isoform): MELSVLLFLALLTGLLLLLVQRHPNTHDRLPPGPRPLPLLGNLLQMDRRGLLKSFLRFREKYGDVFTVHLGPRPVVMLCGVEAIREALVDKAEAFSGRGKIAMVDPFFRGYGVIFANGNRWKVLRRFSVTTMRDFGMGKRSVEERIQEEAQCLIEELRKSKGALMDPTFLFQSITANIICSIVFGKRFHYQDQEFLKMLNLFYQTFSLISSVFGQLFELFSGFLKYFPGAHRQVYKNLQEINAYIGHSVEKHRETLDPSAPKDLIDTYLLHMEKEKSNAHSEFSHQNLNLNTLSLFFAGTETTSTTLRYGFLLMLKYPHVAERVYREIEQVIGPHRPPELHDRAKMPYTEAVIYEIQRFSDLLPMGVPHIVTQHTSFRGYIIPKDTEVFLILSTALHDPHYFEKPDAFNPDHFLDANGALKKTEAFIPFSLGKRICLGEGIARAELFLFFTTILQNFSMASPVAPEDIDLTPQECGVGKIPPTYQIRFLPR
Experimental: (§2) CYP inhibition by test compounds in human liver microsomes (HLM) for seven major CYP450 isoforms CYP1A2, CYP2C9, CYP2D6, CYP2B6, CYP2C8, CYP2C19 and CYP3A4 were assessed. […] 50 μM phenacetin, 2 μM midazolam, 5 μM diclofenac, 50 μM mephenytoin, 80 μM bupropion, and 5 μM dextromethorphan were used as probe substrates of CYP1A2, CYP3A4, CYP2C9, CYP2C19, CYP2B6, and CYP2D6, respectively. The incubation times were 20 min for […], CYP2D6, CYP2C9, CYP2B6, and CYP2C8; 40 min for CYP2C19; and 10 min for CYP 3A4. Following incubations, the reactions were terminated with acetonitrile containing internal standard. The samples were centrifuged and the supernatants were analyzed for the formation of metabolites (1-hydroxymidazolam (CYP3A4), 4-hydroxydiclofenac (CYP2C9), 4-hydroxymephenytoin (CYP2C19) and dextrorphan (CYP2D6), hydroxybupropion (CYP2B6), acetaminophen (CYP1A2), desethylamodiaquine (CYP2C8)) by LC/MS/MS.

[7] = target: CYP2C19 (Homo sapiens (Human), UniProt P33261); test: CYP inhibition in human liver microsomes; details: read-out: CYP-2C19; human liver microsomes; probe substrate mephenytoin
CYP2C19, sequence (P33261 whole entry): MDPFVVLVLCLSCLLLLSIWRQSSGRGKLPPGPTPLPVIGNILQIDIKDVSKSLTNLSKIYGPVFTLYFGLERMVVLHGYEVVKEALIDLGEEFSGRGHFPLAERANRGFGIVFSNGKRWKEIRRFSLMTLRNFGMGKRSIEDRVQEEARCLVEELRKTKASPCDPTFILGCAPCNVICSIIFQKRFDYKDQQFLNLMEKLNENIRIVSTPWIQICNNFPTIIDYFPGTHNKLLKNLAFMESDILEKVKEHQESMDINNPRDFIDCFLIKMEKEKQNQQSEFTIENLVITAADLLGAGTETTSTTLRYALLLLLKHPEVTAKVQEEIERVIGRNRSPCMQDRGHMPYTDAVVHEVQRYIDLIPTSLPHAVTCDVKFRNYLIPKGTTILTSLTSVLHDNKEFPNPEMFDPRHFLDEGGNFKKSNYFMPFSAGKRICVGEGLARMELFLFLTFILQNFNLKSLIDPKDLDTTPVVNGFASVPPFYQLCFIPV
Experimental: as §2

[8] = target: CYP2C8 (Homo sapiens (Human), UniProt P10632); test: CYP inhibition in human liver microsomes; details: read-out: CYP-2C8, metabolite desethylamodiaquine
CYP2C8, sequence (P10632 whole entry): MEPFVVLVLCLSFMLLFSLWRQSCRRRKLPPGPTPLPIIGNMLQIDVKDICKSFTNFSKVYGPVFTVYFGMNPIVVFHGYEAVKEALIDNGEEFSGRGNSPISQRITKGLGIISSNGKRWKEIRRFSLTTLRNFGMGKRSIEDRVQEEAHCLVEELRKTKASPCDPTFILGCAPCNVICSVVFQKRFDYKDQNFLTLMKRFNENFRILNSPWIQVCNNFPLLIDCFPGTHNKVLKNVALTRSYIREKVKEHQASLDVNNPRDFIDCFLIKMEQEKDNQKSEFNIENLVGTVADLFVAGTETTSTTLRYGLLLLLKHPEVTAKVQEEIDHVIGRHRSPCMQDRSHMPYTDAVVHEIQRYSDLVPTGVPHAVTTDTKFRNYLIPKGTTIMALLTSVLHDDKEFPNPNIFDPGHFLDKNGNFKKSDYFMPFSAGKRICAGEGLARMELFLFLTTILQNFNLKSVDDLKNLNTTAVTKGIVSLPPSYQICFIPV
Experimental: as §2

[9] = target: CYP2C9 (Homo sapiens (Human), UniProt P11712); test: CYP inhibition in human liver microsomes; details: read-out: CYP-2C9; human liver microsomes; probe substrate diclofenac
CYP2C9, sequence (P11712 whole entry): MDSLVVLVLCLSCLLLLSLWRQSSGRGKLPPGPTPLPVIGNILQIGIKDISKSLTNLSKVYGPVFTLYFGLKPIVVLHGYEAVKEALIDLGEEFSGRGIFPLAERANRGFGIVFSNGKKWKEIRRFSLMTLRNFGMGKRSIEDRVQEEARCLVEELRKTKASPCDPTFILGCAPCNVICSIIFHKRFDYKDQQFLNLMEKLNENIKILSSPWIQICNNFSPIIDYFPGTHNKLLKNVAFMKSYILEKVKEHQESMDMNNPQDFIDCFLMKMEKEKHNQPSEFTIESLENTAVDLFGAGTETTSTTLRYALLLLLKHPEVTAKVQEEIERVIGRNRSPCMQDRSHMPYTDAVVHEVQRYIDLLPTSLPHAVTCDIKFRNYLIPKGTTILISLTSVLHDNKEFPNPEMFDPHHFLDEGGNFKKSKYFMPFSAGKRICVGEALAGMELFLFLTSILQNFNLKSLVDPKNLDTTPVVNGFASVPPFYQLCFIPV
Experimental: as §2

[10] = target: CYP2D6 (Homo sapiens (Human), UniProt P10635); test: CYP inhibition in human liver microsomes; details: read-out: CYP-2D6; human liver microsomes; probe substrate dextromethorphan
CYP2D6, sequence (P10635 whole entry): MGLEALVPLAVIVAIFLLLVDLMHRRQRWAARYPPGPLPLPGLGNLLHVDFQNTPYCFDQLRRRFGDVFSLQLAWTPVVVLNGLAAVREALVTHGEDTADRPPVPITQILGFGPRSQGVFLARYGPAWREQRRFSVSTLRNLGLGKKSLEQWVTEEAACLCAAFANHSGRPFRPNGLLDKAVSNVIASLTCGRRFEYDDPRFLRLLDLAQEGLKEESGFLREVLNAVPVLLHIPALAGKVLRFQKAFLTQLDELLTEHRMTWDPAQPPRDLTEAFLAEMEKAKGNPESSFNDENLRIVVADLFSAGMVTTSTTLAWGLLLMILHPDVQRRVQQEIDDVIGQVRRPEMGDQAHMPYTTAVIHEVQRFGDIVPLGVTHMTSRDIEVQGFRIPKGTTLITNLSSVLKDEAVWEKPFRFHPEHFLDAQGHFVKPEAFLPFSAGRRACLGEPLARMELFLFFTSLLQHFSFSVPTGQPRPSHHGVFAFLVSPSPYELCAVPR
Experimental: as §2

[11] = target: CYP3A4 (Homo sapiens (Human), UniProt P08684); test: CYP inhibition in human liver microsomes; details: read-out: CYP-3A4; human liver microsomes; probe substrate midazolam
CYP3A4, sequence (P08684 whole entry): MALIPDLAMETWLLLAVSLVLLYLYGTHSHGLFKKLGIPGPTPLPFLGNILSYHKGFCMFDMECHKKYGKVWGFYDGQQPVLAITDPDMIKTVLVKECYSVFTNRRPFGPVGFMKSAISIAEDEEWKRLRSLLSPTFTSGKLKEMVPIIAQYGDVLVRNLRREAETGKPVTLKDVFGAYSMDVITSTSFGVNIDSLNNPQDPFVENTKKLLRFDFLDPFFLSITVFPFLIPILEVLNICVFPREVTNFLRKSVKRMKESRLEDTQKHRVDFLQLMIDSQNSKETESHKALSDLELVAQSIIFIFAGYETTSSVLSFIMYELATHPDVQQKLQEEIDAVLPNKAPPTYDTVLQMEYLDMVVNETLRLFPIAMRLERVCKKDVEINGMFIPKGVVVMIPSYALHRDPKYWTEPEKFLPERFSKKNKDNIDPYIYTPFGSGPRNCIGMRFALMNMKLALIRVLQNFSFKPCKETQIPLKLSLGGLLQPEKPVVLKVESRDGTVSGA
Experimental: as §2

[12] = mouse, in vivo, po, 10 mg/kg; for AUCExtr [%] / F [%] / Vz: Balb/c
Experimental: (§3) Tested compounds were formulated at 1 mg/mL as a dosing solution for oral administration in vehicle A: 10% dimethylacetamide (DMAC), 20% propylene glycol, and 40% PEG-400 or vehicle B: 10% Kolliphor® EL and 10% ethanol (EtOH).
(§4) Animals were acclimated for a minimum period of 4 days upon arrival at the testing facility.
(§5) At the day of study, mice were weighed, identified by marking the tail with numbers using a non-toxic permanent marker, and designated into ten experimental groups (n=3 per group).
(§6) Non-dosed mice were used to collect samples of zero time points. […] Blood samples were centrifuged immediately at 9,000 g at 4° C. for 5 minutes and then plasmas were separated. Plasma samples were placed into individually labeled cryovials and stored in a −80° C. freezer until LC/MS/MS bioanalysis.
(§7) The bioanalysis of plasma samples was conducted with a QTRAP 4500 triple quadrupole mass spectrometer (Applied Biosystems SCIEX) in the positive ion mode and interfaced with an Ekspert Ultra LC100 UPLC System (Eksigent). Calibration standards (0.01 to 10 μM) and QCs (0.02, 0.2 and 2.0 μM) were prepared from naïve mouse plasma in parallel with mouse plasma study samples (60 μL) by precipitation with three volumes of ice cold internal standard solution (acetonitrile containing 20 μM of theophylline). The precipitated samples were centrifuged at 6,100 g for 30 min. Following centrifugation, an aliquot of each supernatant was transferred to an autosampler plate and diluted with two volumes of aqueous mobile phase (0.1% formic acid in water). Samples were injected onto a reverse phase analytical column (YMC Triart C18; 2.0×50 mm; 1.9 μm; YMC CO) and eluted with a gradient of 0.1% formic acid in Acetonitrile. Assayed test compound and internal standards were monitored by a multiple reaction monitoring (MRM) experiment using an Analyst software (v1.6.2, Applied Biosystems SCIEX). Quantitation was conducted using a MultiQuant software (v2.1, Applied Biosystems SCIEX) and the resulting calibration curve was fitted with a linear regression and 1/x weighting. The lower limits of quantitation were 1<LLQ <5 ng/mL.

[13] = in vivo; details: Balb/c, mouse, po, 10 mg/kg
Experimental: as §3, §4, §5, §6, §7

| SMILES | inhibition at 1 µM [1] | IC50 [1] | half-life at […], 1 µM [2] | microsomal CLint at […], 1 µM [2] | Rem. @ hLM (%) [2] | half-life at […], 1 µM [3] | microsomal CLint at […], 1 µM [3] | Rem. @ mLM (%) [3] | microsomal CLint at […], 1 µM [4] | half-life at […], 1 µM [4] | Rem. @ rLM (%) [4] | solubility kinetic at 1 h [5] | IC50 [6] | IC50 [7] | IC50 [8] | IC50 [9] | IC50 [10] | IC50 [11] | AUCExtr [%] [12] | F [%] [12] | other results |
| --- | --- | --- | --- | --- | --- | --- | --- | --- | --- | --- | --- | --- | --- | --- | --- | --- | --- | --- | --- | --- | --- |
| O=C(Nc1cnn(Cc2ccc(C(F)(F)F)cc2C(F)(F)F)c1)c1cc(-c2cnccn2)on1 [Compound 114, N-(1-(2,4-bis(trifluoromethyl)benzyl)-1H-pyrazol-4-yl)-5-(pyrazin-2-yl)isoxazole-3-carboxamide] | > 50% | < 1 µM | 3.55 h | 6.5 µL/min/mg | 90.4% | 2.75 h | 8.4 µL/min/mg | 86.8% | 25 µL/min/mg | 0.923 h | 69.7% | 1.17 µM (≈ 0.564 µg/mL) | > 50 µM | > 50 µM | > 50 µM | > 50 µM | > 50 µM | > 50 µM | 14% | 43.3% | Vz [12]: 10.5 L/kg; Last time point for AUClast [12]: 24 h; AUC(0-inf) [13]: 11900 ng·h/mL; AUC(0-t) [13]: 10300 ng·h/mL; Cmax [13]: 899 ng/mL; Tmax [13]: 0.5 h; half-life [13]: 8.66 h |
| O=C(Nc1cnn(Cc2ccc(C(F)(F)F)cc2C(F)(F)F)c1)c1cc(-c2ccccn2)on1 [Compound 11, N-(1-(2,4-bis(trifluoromethyl)benzyl)-1H-pyrazol-4-yl)-5-(pyridin-2-yl)isoxazole-3-carboxamide] | > 50% | < 1 µM | 1.12 h | 21 µL/min/mg | 73.5% | – | 55 µL/min/mg | 40.8% | 44 µL/min/mg | – | 44.8% | 9.41 µM (≈ 4.53 µg/mL) | 16.9 µM | 9.85 µM | 1.09 µM | 7.77 µM | > 50 µM | > 50 µM | 5.07% | 48.6% | half-life at 1 μM [3]: 0.422 h; half-life at 1 μM [4]: 0.522 h; Vz [12]: 8.74 L/kg; Last time point for AUClast [12]: 24 h; AUC(0-inf) [13]: 10300 ng·h/mL; AUC(0-t) [13]: 9780 ng·h/mL; Cmax [13]: 2270 ng/mL; Tmax [13]: 0.25 h; half-life [13]: 6.24 h |
| C[C@H](c1ccc(C(F)(F)F)cc1C(F)(F)F)n1cc(NC(=O)c2cc(-c3ccccn3)no2)cn1 [Compound 76, (R)—N-(1-(1-(2,4-bis(trifluoromethyl)phenyl)ethyl)-1H-pyrazol-4-yl)-3-(pyridin-2-yl)isoxazole-5-carboxamide] | > 50% | < 1 µM | 0.96 h | 24.1 µL/min/mg | 69.7% | 1.2 h | 19.3 µL/min/mg | 74.9% | 34.7 µL/min/mg | 0.665 h | 59.4% | 7.03 µM (≈ 3.48 µg/mL) | 6.45 µM | 3.6 µM | 1.14 µM | 6 µM | 7.54 µM | > 50 µM | 2.55% | 50.6% | Vz [12]: 1.45 L/kg; Last time point for AUClast [12]: 24 h; AUC(0-inf) [13]: 45300 ng·h/mL; AUC(0-t) [13]: 44100 ng·h/mL; Cmax [13]: 5180 ng/mL; Tmax [13]: 1 h; half-life [13]: 4.54 h |
| Cc1c(NC(=O)c2cc(-c3ccco3)on2)cnn1Cc1ccc(C(F)(F)F)cc1C(F)(F)F [Compound 93, N-(1-(2,4-bis(trifluoromethyl)benzyl)-5-methyl-1H-pyrazol-4-yl)-5-(furan-2-yl)isoxazole-3-carboxamide] | > 50% | < 1 µM | 1.27 h | 18.2 µL/min/mg | 74.1% | – | 34.7 µL/min/mg | 51.1% | 20.2 µL/min/mg | – | 69.8% | 2.92 µM (≈ 1.41 µg/mL) | > 50 µM | > 50 µM | > 50 µM | > 50 µM | > 50 µM | > 50 µM | – | – | half-life at 1 μM [3]: 0.667 h; half-life at 1 μM [4]: 1.15 h |
| C[C@H](c1ccc(C(F)(F)F)cc1C(F)(F)F)n1cc(NC(=O)c2nnc(-c3cnccn3)s2)cn1 [Compound 152, (R)—N-(1-(1-(2,4-bis(trifluoromethyl)phenyl)ethyl)-1H-pyrazol-4-yl)-5-(pyrazin-2-yl)-1,3,4-thiadiazole-2-carboxamide] | > 50% | < 1 µM | 2.32 h | 10 µL/min/mg | 84.4% | 2.12 h | 10.9 µL/min/mg | 82.6% | 7.2 µL/min/mg | 3.2 h | 86.4% | 28.1 µM (≈ 14.4 µg/mL) | > 50 µM | > 50 µM | > 50 µM | > 50 µM | > 50 µM | > 50 µM | – | – | – |
